In ChEMBL document CHEMBL4425106, “Uncoupling the Structure-Activity Relationships of β2 Adrenergic Receptor Ligands from Membrane Binding” (J Med Chem, 2016):

Biological target: Beta-2 adrenergic receptor (Homo sapiens) (UniProt P07550)
Sequence (P07550 whole entry, looked up): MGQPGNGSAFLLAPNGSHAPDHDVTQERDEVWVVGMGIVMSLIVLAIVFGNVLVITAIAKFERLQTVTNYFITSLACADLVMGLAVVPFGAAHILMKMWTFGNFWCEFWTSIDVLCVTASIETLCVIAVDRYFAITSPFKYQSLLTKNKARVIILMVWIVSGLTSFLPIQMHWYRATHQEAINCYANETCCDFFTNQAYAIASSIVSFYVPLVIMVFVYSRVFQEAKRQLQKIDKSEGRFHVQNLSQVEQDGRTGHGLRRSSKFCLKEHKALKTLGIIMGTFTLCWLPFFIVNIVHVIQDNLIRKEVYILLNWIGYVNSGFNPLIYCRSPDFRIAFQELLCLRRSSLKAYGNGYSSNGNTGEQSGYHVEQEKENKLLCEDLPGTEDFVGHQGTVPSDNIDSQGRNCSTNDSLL
Description: Binding affinity to inactive/G protein-uncoupled human beta2-AR by immobilized artificial membrane HPLC analysis

| Structure (SMILES) | log K |
| --- | --- |
| CC(C)(C)NCC(O)COc1cccc2c1CC(O)C(O)C2 (mixture of isomers) | 1.7 |
| CC(C)(C)NCC(O)COc1cccc2[nH]c(C#N)cc12 (racemic) | 2.9 |
